Patent EP0402734A2, “Composition for the treatment of application of the central nervous system and to enhance cerebral perfusion” (Dr. Karl Thomae GmbH, priority 1989, dated 1990)

What was measured:
[1] = test system: inhibitorischen Autorezeptoren in hippocampalem Gewebe; test: Transmitter release study: in vitro acetylcholine release from electrically stimulated hippocampal slices, antagonism of carbachol; type: cell-based, Ratten; settings: rat hippocampal slices 0,4 mm, preloaded with ³H-Cholin, electrical stimulation 3 Hz, agonist Carbachol
Source text: B. Transmitter Release Studien
Die Versuche zur in-vitro Freisetzung von Acetylcholin aus hippocampalen Gewebeschnitten wurden in Analogie zu Anord nungen durchgeführt, die für die Freisetzung von 5-HT aus Hypothalamus- bzw. Hippocampus-Gewebe beschrieben sind (vgl. M.H. Richards, Naunyn Schmiedeberg's Arch. Pharmacol. 329, 359-366 (1985) und T.J. Feuerstein, G. Hertting und R. Jackisch, Europ. J. Pharmacol. 107, 233-242 (1985)).
Männliche Ratten (Stamm Chbb:Thom, Gewicht 200 bis 300 g) wurden ohne Vorbehandlung dekapitiert; das gesamte Gehirn wurde sofort entnommen und unter Eiskühlung zerlegt. Gemäß den oben beschriebenen Verfahren wurde der Hippocampus in 0,4 mm dicke Schnitte mit Hilfe eines McIlwain-Gewebehackers geschnitten. Die Gewebeschnitte wurden 30 Minuten lang bei 37°C vorincubiert in Gegenwart von 0,05 mM ³H-Cholin in Krebs-Henseleit Puffer der folgenden Zusammensetzung: 120 mM NaCl, 4,8 mM KCl, 1,3 mM CaCl₂, 1,2 mM KH₂PO₄, 1,2 mM MgSO₄ und 25 mM NaHCO₃. Der Puffer enthielt zusätzlich 2 g Glucose und 100 mg EDTA. Der Puffer wurde mit Natronlauge auf einen pH-Wert von 7,4 bei 20°C eingestellt. Alle Lösungen wurden kontinuierlich mit 95 % O₂ und 5 % CO₂ gesättigt. Die Gewebeschnitte wurden daraufhin gespült, jeder Gewebeschnitt wurde jeweils willkürlich auf 12 Superfusionseinheiten gegeben und mit der Pufferlösung bei 37°C bei einer Fließgeschwindigkeit von 1 ml/min überspült. Die Gewebeschnitte wurden jeweils von einem Polypropylennetzwerk zwischen zwei Platinelektroden gehalten. Nach 50-minütiger Überspülung wurden 4-Minuten-Fraktionen des Superfusats über eine gesamte Zeitdauer von 92 Minuten gesammelt. Die Gewebeschnitte wurden zweimal elektrisch stimuliert, und zwar 60 Minuten (S1) und 100 Minuten (S2) nach Beginn der Superfusion. Dabei wurden Rechteckimpulse von 2 ms Dauer und mit einer Frequenz von 3 Hz 100 Sekunden lang bei 5 V/cm und 24 mA mittels eines HSE Stimulators II der Firma Hugo Sachs Elektronik, Hugstetten, West-Deutschland, verabreicht. Die zu prüfenden Substanzen wurden dem Puffer ab 20 Minuten vor dem Zeitpunkt S2 zusammen mit dem Agonisten (Carbachol) beigefügt. Am Ende wurden die Gewebeschnitte aus den Kammern entfernt und zur Bestimmung des verbliebenen Tritiums solubilisiert. […]

[2] = target: muscarinische Rezeptoren der Pia mater des Rindes; test: Inhibition of 3H-NMS binding to muscarinic receptors in bovine pia mater vessel homogenate; set-up: species or system Rind; settings: Hemmung der ³H-NMS-Bindung, 0,3 nM [³H]NMS, 45 min, room temperature
Procedure: A. Bindung verschiedener muskarinischer Antagonisten an Rezeptoren der Pia mater des Rindes
Die Pia-Gefäße von Rinder-Hirnen, erhalten vom lokalen Schlachthof, wurden präpariert und von Blutresten gereinigt. Je 0,5 g-Portionen wurden bei -80°C bis zur weiteren Verwendung gelagert. Zur Homogenatgewinnung wurden 0,5 g Pia-Gefäße mittels eines Gewebehackers zerkleinert, in 60 ml HEPES-Puffer (20 mM HEPES, 10 mM MgCl₂, 100 mM NaCl, pH 7,50) aufgenommen, mit einem Ultra-Turrax homogenisiert und 20 min. bei 0°C mit 48000 x g zentrifugiert. Das Pellet wurde erneut mit einem Ultra-Turrax homogenisiert, durch Mull filtriert und mit HEPES-Puffer auf eine Verdünnung von 1:140 bezogen auf das Feuchtgewicht der Gefäße verdünnt.
0,3 nM [³H]NMS (³H-N-Methylscopolamin) und steigende Konzentrationen des Antagonisten wurden mit dem Homogenat in einem Gesamtvolumen von 0,52 ml für 45 min. bei Raumtemperatur inkubiert. Der Inkubationsansatz wurde mit Hilfe eines Scatron Cell Harvesters über Glasfaser-Filtermatten filtriert und zweimal mit eiskalter physiologischer Kochsalzlösung gewaschen. Die Filter-gebundene Radioaktivität wurde in einem Flüssigkeitsszintillationszähler bestimmt. Als unspezifische Bindung wurde die gebundene Radioaktivität in Gegenwart von 10⁻⁶M (-)-Chinuclidinyl-benzilat definiert.

Compound	ACh-Release aus Hippocampus-Gewebe (pA₂) [1]	-log IC₅₀ (M) [2]
CCN(CC)CC1CCCCN1CC(=O)N1c2cc(Cl)ccc2C(=O)Nc2cccnc21 (racemic) [C, (±)-9-Chlor-11-[[2-[(diethylamino)methyl]-1-piperidinyl]acetyl]-5,11-dihydro-6H-pyrido[2,3-b][1,4]benzodiazepin-6-on]	7,3	7,5 M
CCN(CC)CC1CCCCN1CC(=O)N1c2ccccc2C(=O)Nc2cccnc21 (single isomer, unassigned; (+)) [A, (+)-11-[[2-[(Diethylamino)methyl]-1-piperidinyl]acetyl]-5,11-dihydro-6H-pyrido[2,3-b][1,4]benzodiazepin-6-on]	7,15	7,1 M
O=C1Nc2cccnc2N(C(=O)CCC#CCN2CCCCC2)c2ccccc21 [B, 5,11-Dihydro-11-[1-oxo-6-(1-piperidinyl)-4-hexin-1-yl]-6H-pyrido[2,3-b][1,4]benzodiazepin-6-on]	7,2	6,9 M
CCCN(CCC)CC1CCCCN1CCNC(=O)N1c2ccccc2C(=O)Nc2cccnc21.CS(=O)(=O)O (centres unmarked) [D, 5,11-Dihydro-11-[[[2-[2-[(dipropylamino)methyl]-1-piperidinyl]ethyl]amino]carbonyl]-6H-pyrido[2,3-b][1,4]benzodiazepin-6-on-methansulfonat]	8,35	7,9 M
O=C1Nc2cccnc2N(C(=O)N2CCCC(CCCN3CCCCC3)C2)c2ccccc21 (centres unmarked) [E, 5,11-Dihydro-11-[[3-[3-(1-piperidinyl)-1-propyl]-1-piperidinyl]carbonyl]-6H-pyrido[2,3-b][1,4]benzodiazepin-6-on]	9,55	8,8 M
Cc1scc2c1N(C(=O)CN1CCC(CCCN3CCCCC3)CC1)c1ccccc1NC2=O [F, 4,9-Dihydro-3-methyl-4-[[4-[3-(1-piperidinyl)-1-propyl]-1-piperidinyl]acetyl]-10H-thieno[3,4-b][1,5]benzodiazepin-10-on]	7,7	8,6 M
Cc1scc2c1N(C(=O)CCC#CCN1CCCCCC1)c1ccccc1NC2=O [H, 4,9-Dihydro-3-methyl-4-[6-(hexahydro-1H-1-azepinyl)-1-oxo-4-hexin-1-yl]-10H-thieno[3,4-b][1,5]benzodiazepin-10-on]	8,0	8,0 M
CCN(CC)CC1COCCN1CCCC(=O)N1c2ccccc2C(=O)Nc2cccnc21 (centres unmarked) [I, 11-[4-[3-[(Diethylamino)methyl]-4-morpholinyl]-1-oxo-1-butyl]-5,11-dihydro-6H-pyrido[2,3-b][1,4]benzodiazepin-6-on]	7,5	7,7 M
CN(CCC1CCCN1C)CC(=O)N1c2ccccc2C(=O)Nc2cccnc21 (centres unmarked) [K, 5,11-Dihydro-11-[[[2-(1-methyl-2-pyrrolidinyl)ethyl]methylamino]acetyl]-6H-pyrido[2,3-b][1,4]benzodiazepin-6-on]	8,5	8,2 M
CN(CCC1CCCCCN1C)CC(=O)N1c2ccccc2C(=O)Nc2cccnc21 (centres unmarked) [L, 5,11-Dihydro-11-[[[2-(1-methyl-hexahydro-1H-2-azepinyl)ethyl]methylamino]acetyl]-6H-pyrido[2,3-b][1,4]benzodiazepin-6-on]	8,45	8,4 M
